{"source": "patent US11274332B2", "about": "“Methods of administering 3,4-diaminopyridine” (SERB SA, priority 2011, dated 2022)", "molecular_target": "T1, cloned human Kv1.3 potassium channel (Homo sapiens, UniProt P22001)", "T1 construct": "expressed in transfected cells", "T1 sequence (P22001 whole entry)": "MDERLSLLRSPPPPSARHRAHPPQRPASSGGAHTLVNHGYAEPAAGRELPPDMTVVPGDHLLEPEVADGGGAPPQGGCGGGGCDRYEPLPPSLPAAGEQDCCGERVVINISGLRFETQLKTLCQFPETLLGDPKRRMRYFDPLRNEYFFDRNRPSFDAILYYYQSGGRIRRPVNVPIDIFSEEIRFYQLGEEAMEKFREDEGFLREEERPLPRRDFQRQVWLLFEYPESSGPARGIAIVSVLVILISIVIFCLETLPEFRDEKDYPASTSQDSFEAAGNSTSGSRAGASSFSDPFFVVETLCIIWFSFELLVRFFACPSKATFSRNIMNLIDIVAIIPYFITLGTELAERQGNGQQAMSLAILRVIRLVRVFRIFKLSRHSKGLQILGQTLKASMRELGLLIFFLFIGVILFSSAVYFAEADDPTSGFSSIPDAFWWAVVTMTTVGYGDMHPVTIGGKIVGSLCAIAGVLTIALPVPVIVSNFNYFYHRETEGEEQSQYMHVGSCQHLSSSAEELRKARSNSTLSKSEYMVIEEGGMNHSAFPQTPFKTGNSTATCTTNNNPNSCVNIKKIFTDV", "assay": "PatchXpress inhibition of cloned human Kv1.3 in CHO cells (Example 6)", "type": "cell-based", "settings": "hKv1.3, up to 3000 μM", "from_the_text": "The objective of this study was to examine the in vitro effects and determine the […] of 3,4-DAP phosphate and the metabolite N-(4-aminopyridin-3-yl) acetamide HCl on the following ion channels: cloned human Kv1.1 potassium channel (encoded by the human KCNA1 gene, expressed in HEK293 cells), cloned human Kv1.2 potassium channel (encoded by the human KCNA2 gene, expressed in HEK293 cells), cloned human Kv1.3 potassium channel (encoded by the human KCNA3 gene, expressed in CHO cells), cloned human Kv1.4 potassium channel (encoded by the human KCNA4 gene, expressed in HEK293 cells), cloned human Kv1.5 potassium channel (encoded by the human KCNA5 gene and expressed in CHO cells), responsible for IKur, ultra-rapid delayed rectifier potassium current.\nChemicals used in solution preparation were purchased from Sigma-Aldrich (St. Louis, Mo.), unless otherwise noted, and were of ACS reagent grade purity or higher. Stock solutions of each test article (100 mM, 30 mM and 1.00 mM 3,4-DAP phosphate and 100 mM N-(4-aminopyridin-3-yl)acetamide) were prepared in sterile water and stored refrigerated. […]\nIn preparation for a recording session, intracellular solution was loaded into the intracellular compartments of the Sealchip16. […] After establishment of a whole-cell configuration, membrane currents were recorded using dual-channel patch clamp amplifiers in the PatchXpress®. […]", "data": [{"smiles": "CC(=O)Nc1cnccc1N", "note": "[3-N-acetyl amifampridine, N-(4-aminopyridin-3-yl)acetamide]", "values": [{"measurement": "activity on K+ channel", "value": "inactive"}, {"measurement": "activity on K+ channel", "setting": "listed as N-acetyl metabolite", "value": "not active"}]}]}
